Holding throughout (format): cell-based
The test system of experiment [1] is P2X receptor. The experiment is described as follows: Intracellular calcium ion concentration in cultured epidermal keratinocytes (Fluo3-AM fluorescence), P2X agonist/inhibitor. Conditions: FIG. 2; for concentration of intracellular calcium ions in the keratinocytes: agonist solution (final concentration 10 μM) added to epidermal keratinocytes. The protocol:
(a) Commercially available epidermal keratinocytes (product of Kurabo Industries Ltd.) were subjected to culture by means of a customary method by use of a KGM medium which had been prepared through the following procedure: MCDB153IK (product of Kyokuto Pharmaceutical Industrial Co., Ltd.) (10.93 g), N-2-hydroxyethylpiperazine-N′-2-ethanesulphonic acid (HEPES) (6.7 g), NaHCO3 (1.2 g), insulin (5 mg), hydrocortisone (0.5 mg), transferrin (10 mg), phosphorylethanolamine (14.1 mg), EGF (10 μg), penicillin (100 mg), and kanamycin (60 mg) were dissolved in purified water (1 L); the pH of the resultant solution was adjusted to 7.4 by use of NaOH; the resultant solution was subjected to filter sterilization; and bovine pituitary gland extract (product of Kyokuto Pharmaceutical Industrial Co., Ltd.) (55 mg) was added to the resultant solution immediately before use of the solution. On the day before measurement of calcium ions was carried out, the thus-cultured epidermal keratinocytes were inoculated into a 96-well plate (2×10^5 cells/well). On the following day, the aforementioned culture solution was removed from the well plate by use of a pipette such that the cells were not exfoliated from the wells. Subsequently, a balanced salt solution (BSS: an aqueous solution prepared by dissolving NaCl (150 mM), KCl (5 mM), CaCl2 (1.8 mM), NaH2PO4 (1.2 mM), MgCl2 (1.2 mM), D-glucose (10 mM), and HEPES (25 mM) in water, and adjusting the pH of the resultant solution to 7.4 by use of NaOH) and Fluo3-AM (product of Dainippon Pharmaceutical Co., Ltd.), which is a calcium-sensitive fluorescent dye, were added to the cultured epidermal keratinocytes (total amount of BSS and Fluo3-AM per well: […]), and incubation was carried out at 37° C. for 60 minutes, to thereby introduce the fluorescent dye into the cultured epidermal keratinocytes. […]
(§1) The fluorescence intensity was measured over time by means of a customary method by use of a fluorescence microplate reader (485 nm, 538 nm).
(§2) The concentration of intracellular calcium ions in the cells was calculated by use of the following formula. […]
(A change in cytosolic calcium serves as a functional read-out for many receptors and channels.)

Experiment [2] concerns the target T1, VR1 receptor (Homo sapiens, UniProt Q8NER1).
T1 construct: epidermal keratinocytes were brought into contact with capsaicin, which is an agonist of a VR1 receptor; host or cells: cultured epidermal keratinocytes
As to the kind of experiment: Intracellular calcium ion concentration in cultured epidermal keratinocytes (Fluo3-AM fluorescence), VR1 agonist/antagonist. The procedure:
(§3) (a) Commercially available epidermal keratinocytes (product of Kurabo Industries Ltd.) were subjected to culture by means of a customary method by use of a KGM medium which had been prepared through the following procedure: MCDB153IK (product of Kyokuto Pharmaceutical Industrial Co., Ltd.) (10.93 g), N-2-hydroxyethylpiperazine-N′-2-ethanesulphonic acid (HEPES) (6.7 g), NaHCO3 (1.2 g), insulin (5 mg), hydrocortisone (0.5 mg), transferrin (10 mg), phosphorylethanolamine (14.1 mg), EGF (10 μg), penicillin (100 mg), and kanamycin (60 mg) were dissolved in purified water (1 L); the pH of the resultant solution was adjusted to 7.4 by use of NaOH; the resultant solution was subjected to filter sterilization; and bovine pituitary gland extract (product of Kyokuto Pharmaceutical Industrial Co., Ltd.) (55 mg) was added to the resultant solution immediately before use of the solution. On the day before measurement of calcium ions was carried out, the thus-cultured epidermal keratinocytes were inoculated into a 96-well plate (2×10^5 cells/well). […]
as §1, §2

The subject of experiment [3] is epidermal keratinocytes. The experiment is described as follows: Intracellular calcium ion concentration in epidermal keratinocytes after adding pain-producing substances. As to conditions: lactic acid present (mM range), two seconds after addition of the solution; FIG. 4. The protocol: as §3, with “solution.” for “solution. On the day before measurement of calcium ions was carried out, the thus-cultured epidermal keratinocytes were inoculated into a 96-well plate (2×10^5 cells/well).”
as §1, §2
Fmin: Fluorescence intensity of Fluo3-AM when EDTA is added and Ca^2+ is blocked (minimum fluorescence intensity)
Fmax: Fluorescence intensity of Fluo3-AM in the presence of excess Ca^2+ (breakage of cell membranes by a surfactant) (maximum fluorescence intensity) […]

T1 sequence (Q8NER1 whole entry): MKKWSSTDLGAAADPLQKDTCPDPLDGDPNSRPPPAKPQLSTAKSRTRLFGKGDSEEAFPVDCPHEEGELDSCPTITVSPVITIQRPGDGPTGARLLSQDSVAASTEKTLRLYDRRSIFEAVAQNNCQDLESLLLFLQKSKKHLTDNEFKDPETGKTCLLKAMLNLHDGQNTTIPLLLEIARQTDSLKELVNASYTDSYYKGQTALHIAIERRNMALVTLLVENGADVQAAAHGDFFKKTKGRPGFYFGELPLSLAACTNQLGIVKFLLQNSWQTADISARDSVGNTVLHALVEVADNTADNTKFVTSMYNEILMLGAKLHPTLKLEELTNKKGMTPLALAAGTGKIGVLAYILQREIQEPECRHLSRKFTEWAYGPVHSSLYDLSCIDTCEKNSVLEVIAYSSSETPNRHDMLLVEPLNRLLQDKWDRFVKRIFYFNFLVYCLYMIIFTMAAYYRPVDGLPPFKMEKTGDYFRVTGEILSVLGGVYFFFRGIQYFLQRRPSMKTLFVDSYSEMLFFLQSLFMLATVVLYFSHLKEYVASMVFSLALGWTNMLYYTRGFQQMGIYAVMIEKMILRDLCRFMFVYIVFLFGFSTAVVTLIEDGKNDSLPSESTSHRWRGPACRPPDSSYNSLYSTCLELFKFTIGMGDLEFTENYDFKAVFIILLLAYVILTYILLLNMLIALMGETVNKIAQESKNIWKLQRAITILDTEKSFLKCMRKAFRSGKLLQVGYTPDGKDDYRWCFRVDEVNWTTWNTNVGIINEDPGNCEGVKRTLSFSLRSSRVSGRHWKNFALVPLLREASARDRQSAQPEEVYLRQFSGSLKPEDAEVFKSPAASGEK

As to “2′,3′-o-(2,4,6-trinitrophenyl)adenosine 5′-triphosphate [TNP-ATP]”, the “increase in the concentration of intracellular calcium ions caused by αβ-me ATP” value in experiment [1] (keratinocytes preliminarily treated with TNP-ATP (100 nM) for 10 minutes, then mixture of TNP-ATP and αβ-me ATP added) is reported as “suppressed”.

In the case of `Nc1ncnc2c1ncn2[C@@H]1O[C@H](COP(=O)(O)OP(=O)(O)OP(=O)(O)O)[C@@H](O)[C@H]1O` [ATP, adenosine 5′-triphosphate], the “concentration of intracellular calcium ions in the keratinocytes” value in experiment [1] is listed as “significantly increased”.

Take `COc1cc(CNC(=O)CCCC/C=C/C(C)C)ccc1O` [capsaicin]: the “concentration of intracellular calcium ions in the keratinocytes” value in experiment [2] (capsaicin solution (final concentration 100 nM to 10 μM) added to epidermal keratinocytes, FIG. 1A) was “significantly increased”.

Take `Oc1cc2c(cc1O)CN(C(=S)NCCc1ccc(Cl)cc1)CCC2` [capsazepine]: the “increase in the concentration of intracellular calcium ions caused by capsaicin” value in experiment [2] (keratinocytes preliminarily treated with capsazepine for 10 minutes, then mixture of capsaicin and capsazepine added, FIG. 1B) is “suppressed”.

Consider `CC(O)C(=O)O` (stereo not drawn) [lactic acid], for which the “concentration of intracellular calcium ions in the epidermal keratinocytes” value in experiment [3] is reported as “increased”.

As to `Nc1ncnc2c1ncn2[C@@H]1O[C@H](COP(=O)(O)CP(=O)(O)OP(=O)(O)O)[C@@H](O)[C@H]1O` [αβ-me ATP, αβ-methelene ATP], the “concentration of intracellular calcium ions in the keratinocytes” value in experiment [1] is “significantly increased”.

These data come from US20040191171A1, “Method of detecting skin stimulation effect” (priority 2001, published 2004).
